This is an account of results in patent US20250177548A1, “FUSOGENIC PEPTIDE COMPOSITIONS AND METHODS OF CARGO DELIVERY” (CLEMSON UNIVERSITY, priority 2022, published 2025).

A short description of data set [1]: gel assay of siRNA protection from degradation in 50% serum. The data set is classed as in vitro ADME. The following applies: 50% FBS, 1 hour, several N:P ratios. How it is done: (§1) Gel Shift Assays. DIVA3, DIV3H, and DIV3W (all three denoted as DIV3 (X)) peptides suspended in RNase-free water (10 μM), were thawed, and kept on ice prior to complexation with 10 μM of negative control siGENOME non-targeting siRNA #5 (siNT, GE Healthcare Dharmacon, Lafayette, CO) in RNase-free water and incubated for 20 minutes at room temperature to allow the formation of DIV3 (X)-siNT complexes. Various molar ratios of peptides were complexed with siNT at increasing N:P molar ratios to determine the minimum molar ratio necessary to completely complex free siRNAs using an electrophoretic mobility shift assay. To determine the ability of each peptide variant to protect siRNAs from degradation, DIV3 (X)-siNT complexes or siNT alone was left untreated or incubated with either 50% v/v FBS or 5 μg/mL RNase A at 37° C. for one hour. Next, complexes were dissociated using 6% sodium dodecyl sulfate (SDS). Samples were added to a 2% agarose gel and run at 100 V. Gels were stained with ethidium bromide, destained with Milli-Q water, and imaged using a ChemiDoc XRS imager (Bio-Rad, Hercules, CA).
(§2) Characterization of Nanoparticle Size and Stability. To determine the minimum molar ratio necessary to completely complex free siRNAs, increasing N:P molar ratios of LHRH, DIV3W, and LHRH-DIV3W peptide were complexed with siRNAs and electrophoresed using a electrophoretic mobility shift assay. Molar ratios, shown as N:P, are representations of the molar amine peptide content in relation to 1 mole of phosphate group siRNA content. To determine the ability of the peptides to protect siRNAs from serum- or RNase-mediated degradation, LHRH and LHRH-DIV3W complexes were formed in RNase-free water with siNT at increasing N:P molar ratios and incubated at 37° C., 5% CO2, 50% v/v FBS, 5 μg/mL RNase A, or 50% v/v RNase free water for 1 hour. Peptide/siRNA complexes were dissociated using 6% sodium dodecyl sulfate (SDS) prior to electrophoresis in a 2% agarose gel run at 100 V. Gels were stained with ethidium bromide, washed with Milli-Q water, and imaged with a BioRad ChemiDoc XRS imager (BioRad, Hercules, CA).
(§3) Peptides VA-LD and GF-LD, comprising the cleavable linker VA or GLFG, respectively, between the LHRH target sequence and the DIV3W peptide, and non targeting siRNA were electrostatically complexed at increasing N:P ratios then subjected to agarose gel electrophoresis to determine optimal siRNA binding for each peptide. […] Peptide-siRNA nanocomplexes at increasing N:P ratios for peptides for VA-LD (FIG. 30A) and GF-LD (FIG. 30C) were incubated in either Rnase A enzyme or in 50% fetal bovine serum (FBS) for 1 h, dissociated using SDS then subjected to gel electrophoresis to visualize siRNA bands. Gels showing increasing N:P ratios of peptide:siRNA for VA-LD (FIG. 30B) and GF-LD (FIG. 30D) from 20:1 to 80:1 N:P; white bands are indicative of intact siRNA

The next data set deals with RNase A. Kind of data set: gel assay of siRNA protection from RNase A degradation. The data set is classed as in vitro ADME. As to conditions: 1 hour, several N:P ratios. The procedure:
as §1, §2, §3

Data set [2] in a line: dynamic light scattering, size and zeta potential of peptide/siRNA complexes. As to conditions: LHRH-DIV3W peptide/siRNA complexes. The class given is physicochemical. The procedure: Dynamic Light Scattering and Transmission Electron Microscopy. DIV3 (X)-siNT complexes were prepared at 2 mg/mL in RNase-free water. Hydrodynamic size and surface charge of the peptide/siRNA complexes were determined using a Nano ZS Zetasizer (Malvern Pananalytical, Malvern, UK). All data were recorded using Malvern's Zetasizer software.
To determine nanoparticle size and zeta potential, peptides resuspended in RNase-free water (10 μM) were thawed and kept on ice prior to complexation with 10 μM of siNT in RNase-free water and incubated for 20 minutes at room temperature to form DIV3W-siNT and LHRH-DIV3W-siNT complexes. Peptide complexes were prepared at 2 mg/mL in RNase-free water. Hydrodynamic size and surface charge analysis was conducted using a Malvern Nano ZS Zetasizer (Malvern Panalytical, Malvern, UK). All data was analyzed using Malvern's Zetasizer software.

The next data set deals with OVCAR3 cells. Kind of data set: cellular uptake of labeled siRNA by flow cytometry. The class given is cell-based. Further details: uptake efficiency higher than DIV3W uptake: concentration or dose not given beside the values. The following applies: for uptake efficiency, tandem vs LHRH peptide: FIG. 10E, 4 hr, cell line not stated. The procedure:
(§4) Cellular Uptake. OVCAR3 and CAOV3 cells were prepared at 50,000 cells per well in a 24-well plate. […] Post-incubation, media was aspirated and cells were washed with 1× PBS. To counterstain the nuclei, SuperSignal NucBlue Hoechst stain (Thermo Fisher, Waltham, MA) was added to the cells for 30 minutes, followed by an additional 1×PBS wash. Subsequent imaging was performed using an EVOS FL Microscope (Thermo Fisher) at 10× magnification. For flow cytometric analysis, cells were detached, resuspended in 1× PBS, and analyzed using an Attune NXT Acoustic flow cytometer (Invitrogen, Carlsbad, CA) with the blue laser line and BL2 (574/26 nm) channel.
(§5) Cellular Uptake and Targeting Specificity. Observation of cell uptake was performed by seeding OVCAR3 and CAOV3 cells at a density of 50,000 cells per well in a 24-well plate. LHRH and LHRH-DIV3W peptides were complexed with […] as previously described and delivered to cells at 20:1 to 80:1 N:P ratios. Each cell line was incubated with tandem peptide complexes for both 4- and 24-hour treatment periods. Following incubation, cell media was removed, and cells were washed with 1× PBS prior to the addition of 500 μL of 1×PBS and SuperSignal NucBlue Hoescht 33342 nuclear stain (Thermo Fisher, Waltham, MA). Cellular imaging was completed using an EVOS FL Microscope (Thermo Fisher) at 10×, 20×, and 40× magnification. Flow cytometry was completed after cell imaging and cells were trypsinized, resuspended in 1×PBS, and analyzed with an Attune NXT Acoustic Flow Cytometer (Invitrogen) with the red laser line and RL2 […] channel.
On the technique in general: In flow cytometry, cells or beads pass a laser one at a time.

The subject of the next data set is CAOV3 cells. Kind of data set: cellular uptake of labeled siRNA by flow cytometry. The data set is classed as cell-based. As to conditions: for uptake efficiency: 80:1. The procedure: as §4, §5

“And” between values parts separate entries of the source, which are not always exact repeats. Identical values can stand only once. Non-standard residues stand in square brackets, D forms with d. No end group written: not given here. pG = not defined here

For the substance “pGHWSY-(d) LLRPGGGGGWEADIVADIVWDIVADIVAGGG-(d) RRRRRRRRR ([pG]HWSY[dL]LRPGGGGGWEADIVADIVWDIVADIVAGGG[dR][dR][dR][dR][dR][dR][dR][dR][dR]; reading uncertain) [LHRH-DIV3W]”, the “intact siRNA after incubation in 50% serum” value in data set [1] is “fully protect siRNA cargo from degradation”. Further, the “intact siRNA after incubation with RNase A” value with RNase A is listed as “Higher N:P ratios were required for full protection”. The “nanoparticle size (DLS)” value in data set [2] turned out to be 154.2±15.9 nm. Further, the polydispersity index in data set [2] was 0.18. Besides, in data set [2], the “zeta potential (positive charge)” value came out at 33.37±2.00 mV. Also, the “uptake efficiency, tandem vs LHRH peptide” value is 66.81%±4.3% in the data set on OVCAR3 cells (40:1), 72.59%±6.87% in the data set on OVCAR3 cells (60:1) and 76.26%±14.9% in the data set with OVCAR3 cells (80:1). The “uptake efficiency higher than DIV3W uptake” value with OVCAR3 cells (OVCAR3) worked out at 12%; in the data set with CAOV3 cells (CAOV3), 11%. Further, the uptake efficiency in the data set on OVCAR3 cells (OVCAR3, siNT-Cy5.5, 4 hours, 80:1) was 79.58%+0.61% and 79.58%±1.05%; with OVCAR3 cells (OVCAR3, siNT-Cy5.5, 24 hours, 80:1), 76.26%±15.56%; in the data set with CAOV3 cells (CAOV3, siNT-Cy5.5, 4 hours), 36.19%+9.67% and 36.19%±16.76%; with CAOV3 cells (CAOV3, siNT-Cy5.5, 24 hours), 63.47%+4.61% and 63.4%±4.6%.
